Data as given in patent US10792272B2, “Methods for treatment of Clostridium difficile infections” (priority 2016, dated 2020).
In brackets after ≈: the same amount, converted by molar mass. Read-outs that look alike come from different tables or passages of the source.

Key:
[1] = tested on: C. difficile 4118 (CD4118, ATCC BAA-1870, BI/NAP1/027); experiment: MIC by broth microdilution against C. difficile 4118; assay type: cell-based, Clostridium difficile; conditions: for MIC: Clostridioides difficile, ATCCBAA1870
[2] = tested on: C. difficile strains 630 (CD630) and 4118 (CD4118); experiment: MIC / growth inhibition against C. difficile, covering both strains; assay type: cell-based, Clostridium difficile; conditions: for MIC: Clostridioides difficile, read-out: MIC against C. difficile
[3] = tested on: C. difficile 630 (CD630, ATCC BAA-1382); experiment: MIC by broth microdilution against C. difficile 630; assay type: cell-based, Clostridium difficile; conditions: 20-24 h, 37° C.; for MIC: Clostridioides difficile, ATCCBAA1382
C. sporogenes ATCC 15579 = experiment: microbe, parasite or virus in culture; assay type: cell-based, Clostridium sporogenes; conditions: for MIC: Clostridium sporogenes, ATCC15579, read-out: MIC C. sporogenes ATCC 15579
S. epidermidis 1457 = experiment: MIC against aerobic bacteria; assay type: cell-based
P. distasonis ATCC 8503 = experiment: MIC against anaerobic bacteria; assay type: cell-based, Parabacteroides distasonis
[4] = tested on: C. clostridioforme ATCC 25537; experiment: MIC against anaerobic bacteria; assay type: cell-based, Clostridium clostridioforme
B. subtilis ATCC 6051 = experiment: MIC against aerobic bacteria; assay type: cell-based, Bacillus subtilis
S. aureus RN4220 = experiment: MIC against aerobic bacteria; assay type: cell-based; conditions: for MIC: Staphylococcus aureus
P. nigrescens ATCC 33563 = experiment: MIC against anaerobic bacteria; assay type: cell-based, Prevotella nigrescens
P. aeruginosa PAO1 = experiment: MIC against aerobic bacteria; assay type: cell-based, Pseudomonas aeruginosa
A. baumannii M2 = experiment: MIC against aerobic bacteria; assay type: cell-based
[5] = tested on: B. thetaiotaomicron ATCC 29148; experiment: microbe, parasite or virus in culture; assay type: cell-based; conditions: for MIC: Bacteroides thetaiotaomicron, ATCC29148, read-out: MIC B. thetaiotaomicron ATCC 29148
[6] = tested on: panel of aerobic and anaerobic organisms; assay type: cell-based
[7] = tested on: Clostridium difficile strain 4118; experiment: Minimum bactericidal concentration (MBC), logarithmic- and stationary-phase cells; assay type: cell-based; conditions: 3-log reduction of inoculum; for MBC: Clostridioides difficile
Experimental: The MBClog values of the protonophores were determined to be 0.25-2 μg/mL (˜4 to 8-fold greater than their respective MIC values).
Clostridium difficile strain 4118 was grown to OD600˜0.4-0.5 (logarithmic phase) or for 24 h (stationary phase), and thereafter added to two-fold serial dilutions of test compounds. Cultures were incubated for 20-24 h at 37° C., and then viable counts were enumerated on BHIS agar plates. […] MBC measurements were performed in duplicate.

liver carcinoma HepG2 = experiment: In vitro cytotoxicity MTS assay, HepG2; conditions: 0.125 μg/mL; 16 h
[8] = tested on: embryonic kidney HEK 293T/17; experiment: In vitro cytotoxicity MTS assay, HEK 293T/17; conditions: 0.125 μg/mL; 16 h
[9] = Table 1, strain 4118, 20-24 h, 37° C.
[10] = one statement covering CD630 and CD4118
[11] = Table 1, strain 4118, 20-24 h, 37° C., read-out: MIC C. difficile 4118
[12] = RN4220, aerobic, read-out: MIC S. aureus RN4220
[13] = stationary-phase cells of strain 4118

In the case of `COc1c(I)cc(I)cc1C(=O)Nc1ccc2ccccc2c1` [Compound 6b], the “MIC C. difficile 4118” value [1, 9] is reported as greater than 32 µg/mL, the “growth inhibitory activity against CD630 and CD4118 (in words)” value [2] is reported as “inactive” and the “MIC C. difficile 630” value ([3]; Table 1, strain 630) is reported as greater than 32 µg/mL.
For `O=C(Nc1ccc2ccccc2c1)c1cc(I)cc(I)c1` [Compound 6c], the “MIC C. difficile 4118” value [1, 9] was greater than 32 µg/mL, the “growth inhibitory activity against CD630 and CD4118 (in words)” value [2] was “inactive” and the “MIC C. difficile 630” value ([3]; Table 1, strain 630) was greater than 32 µg/mL.
`O=C(Nc1ccc(-c2ccccc2)cc1)c1cc(I)cc(I)c1O` [Compound 7a] was tested, and the “MIC C. difficile 4118” value [1, 9] was 1 µg/mL (≈ 1.85 µM) and the “MIC C. difficile 630” value ([3]; Table 1, strain 630) was 0.5 µg/mL (≈ 0.924 µM).
`O=C(Nc1ccc(Cl)cc1)c1cc(I)cc(I)c1O` [Compound 7b] was tested, and the “MIC C. sporogenes ATCC 15579” value (C. sporogenes ATCC 15579) was 16 µg/mL (≈ 32 µM), the “MIC S. epidermidis 1457” value (S. epidermidis 1457; aerobic) was no more than 0.03 µg/mL and the “MIC P. distasonis ATCC 8503” value (P. distasonis ATCC 8503; anaerobic) was 8 µg/mL (≈ 16 µM). The “MIC C. clostridioforme ATCC 25537” value ([4]; anaerobic) was 16 µg/mL (≈ 32 µM), the “MIC B. subtilis ATCC 6051” value (B. subtilis ATCC 6051; aerobic) was 0.06 µg/mL (≈ 0.12 µM) and the “MIC C. difficile 4118” value [1, 9] was 0.5 µg/mL (≈ 1 µM). For the same compound, the “MIC S. aureus RN4220” value (S. aureus RN4220; aerobic) was 0.06 µg/mL (≈ 0.12 µM), the “MIC P. nigrescens ATCC 33563” value (P. nigrescens ATCC 33563; anaerobic) was 4 µg/mL (≈ 8.01 µM) and the “MIC P. aeruginosa PAO1” value (P. aeruginosa PAO1; aerobic) was greater than 32 µg/mL. For the same compound, the “MIC A. baumannii M2” value (A. baumannii M2; aerobic) was 32 µg/mL (≈ 64.1 µM), the “MIC C. difficile 630” value ([3]; Table 1, strain 630) was 0.25 µg/mL (≈ 0.501 µM) and the “MIC B. thetaiotaomicron ATCC 29148” value ([5]; anaerobic) was greater than 32 µg/mL.
`O=C(Nc1ccccc1Cl)c1cc(I)cc(I)c1O` [Compound 7c] was tested, and the “MIC C. difficile 4118” value [1, 9] was 8 µg/mL (≈ 16 µM), the “MIC against C. difficile” value [2, 10] was 8 µg/mL (≈ 16 µM) and the “MIC C. difficile 630” value ([3]; Table 1, strain 630) was 8 µg/mL (≈ 16 µM).
In the case of `O=C(Nc1ccc(I)cc1)c1cc(I)cc(I)c1O` [Compound 7d], the “MIC C. difficile 4118” value [1, 9] is reported as 0.25 µg/mL (≈ 0.423 µM) and the “MIC C. difficile 630” value ([3]; Table 1, strain 630) is reported as 0.13 µg/mL (≈ 0.22 µM).
With `O=C(Nc1ccc(Oc2ccc(Cl)cc2)cc1)c1cc(Cl)cc(Cl)c1O` [Compound 8, 3,5-Dichloro-N-(4-(4-chlorophenoxy)phenyl)-2-hydroxybenzamide] the MIC (C. sporogenes ATCC 15579) was 4 µg/mL (≈ 9.79 µM), the MIC [1, 11] was 0.06 µg/mL (≈ 0.147 µM) and the MIC (S. aureus RN4220; [12]) was 0.13 µg/mL (≈ 0.318 µM). For the same compound, the MIC [2, 10] was no more than 0.13 µg/mL, the “enhancement of potency relative to 5g and metronidazole” value ([2]; MIC ratio, Table 1) was 4 fold and the “improvement of activity over vancomycin” value ([2]; MIC ratio, Table 1) was roughly 32 fold. The MIC ([3]; Table 1, strain 630) was no more than 0.03 µg/mL.
In the case of `Cc1ncc([N+](=O)[O-])n1CCO` [Metronidazole, metronidazole, reference compound], the MIC (C. sporogenes ATCC 15579) is reported as 0.25 µg/mL (≈ 1.46 µM), the “antibacterial spectrum (in words)” value [6] is reported as “mainly targeted anaerobic bacteria” and the MIC [1, 11] is reported as 0.25 µg/mL (≈ 1.46 µM). The MIC (S. aureus RN4220; [12]) was greater than 32 µg/mL, the MIC ([3]; Table 1, strain 630) was 0.25 µg/mL (≈ 1.46 µM) and the MBCstat [7, 13] was greater than 32 µg/mL. It also gave an MIC [5] of 1 µg/mL (≈ 5.84 µM).
`O=C(Nc1ccc([N+](=O)[O-])cc1Cl)c1cc(Cl)ccc1O` [Niclosamide, niclosamide] was tested, and the MIC [1, 11] was 4 µg/mL (≈ 12.2 µM), the “cell viability HepG2 (MTS)” value (liver carcinoma HepG2) was “significant decrease in viability” and the “cell viability HEK 293T/17 (MTS)” value [8] was “significant decrease in viability”.
For `CN[C@H](CC(C)C)C(=O)N[C@H]1C(=O)N[C@@H](CC(N)=O)C(=O)N[C@H]2C(=O)N[C@H]3C(=O)N[C@H](C(=O)N[C@H](C(=O)O)c4cc(O)cc(O)c4-c4cc3ccc4O)[C@H](O)c3ccc(c(Cl)c3)Oc3cc2cc(c3O[C@@H]2O[C@H](CO)[C@@H](O)[C@H](O)[C@H]2O[C@H]2C[C@](C)(N)[C@H](O)[C@H](C)O2)Oc2ccc(cc2Cl)[C@H]1O` [Vancomycin, vancomycin, reference compound], the MIC (C. sporogenes ATCC 15579) was 2 µg/mL (≈ 1.38 µM), the MIC (S. epidermidis 1457; Staphylococcus epidermidis, 1457, read-out: MIC S. epidermidis 1457) was 2 µg/mL (≈ 1.38 µM) and the MIC (P. distasonis ATCC 8503; Parabacteroides distasonis, ATCC8503, read-out: MIC P. distasonis ATCC 8503) was greater than 32 µg/mL. For the same compound, the “antibacterial spectrum (in words)” value [6] was “Gram-positive organisms”, the MIC ([4]; Clostridium, ATCC25537, read-out: MIC C. clostridioforme ATCC 25537) was 0.5 µg/mL (≈ 0.345 µM) and the MIC (B. subtilis ATCC 6051; Bacillus subtilis, ATCC6051, read-out: MIC B. subtilis ATCC 6051) was 0.13 µg/mL (≈ 0.0897 µM). For the same compound, the MIC [1] was 2 µg/mL (≈ 1.38 µM), the MIC ([1]; 20-24 h, 37° C., read-out: MIC C. difficile 4118) was 2 µg/mL (≈ 1.38 µM) and the MIC (S. aureus RN4220; RN4220, read-out: MIC S. aureus RN4220) was 1 µg/mL (≈ 0.69 µM). The MIC [2] was 1 to 2 µg/mL (≈ 0.69 to 1.38 µM), the MIC (P. nigrescens ATCC 33563; Prevotella nigrescens, ATCC33563, read-out: MIC P. nigrescens ATCC 33563) was greater than 32 µg/mL and the MIC (P. aeruginosa PAO1; Pseudomonas aeruginosa, PAO1, read-out: MIC P. aeruginosa PAO1) was greater than 32 µg/mL. The MIC (A. baumannii M2; Acinetobacter baumannii, M2, read-out: MIC A. baumannii M2) was greater than 32 µg/mL, the MIC [3] was 1 µg/mL (≈ 0.69 µM) and the MBC ([7]; logarithmic-phase cells of strain 4118, read-out: MBClog) was 8 µg/mL (≈ 5.52 µM). For the same compound, the MBC ([7]; stationary-phase cells of strain 4118, read-out: MBCstat) was greater than 32 µg/mL, the MBCstat [7, 13] was greater than 32 µg/mL and the MIC [5] was greater than 32 µg/mL.
